Experimental data: patent US9534059B2, “TIKI inhibitors” (Children's Medical Center Corporation, priority 2012, dated 2017)

Assays:
Assay type in all cases: in vivo
Tiki1 [1] = target: T1, Tiki1 (Xenopus tropicalis, UniProt F6PTN1); assay: Anterior neural marker expression at stage 16 in MO-injected embryos, whole mount in situ hybridization (FIG. 3I)
T1 construct: Thus the endogenous Tiki1 in the Organizer acts in both Wnt-producing and Wnt-responding cells; endogenous in cells; host or cells: Xenopus embryos (dorsal blastomeres / organizer)
T1 sequence (F6PTN1 24-480): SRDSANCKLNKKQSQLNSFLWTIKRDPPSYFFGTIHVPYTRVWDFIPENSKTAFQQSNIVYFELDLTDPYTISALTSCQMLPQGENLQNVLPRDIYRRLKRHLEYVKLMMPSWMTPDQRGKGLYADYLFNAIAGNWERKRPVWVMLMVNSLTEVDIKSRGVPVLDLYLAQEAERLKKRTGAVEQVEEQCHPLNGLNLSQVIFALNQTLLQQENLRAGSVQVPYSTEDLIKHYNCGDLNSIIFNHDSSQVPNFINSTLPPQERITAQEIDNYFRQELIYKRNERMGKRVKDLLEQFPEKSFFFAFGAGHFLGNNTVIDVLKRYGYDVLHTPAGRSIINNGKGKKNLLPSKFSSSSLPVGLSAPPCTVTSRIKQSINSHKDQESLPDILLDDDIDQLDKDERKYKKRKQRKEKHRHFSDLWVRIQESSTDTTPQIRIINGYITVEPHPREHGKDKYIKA
Protocol: (I) Tiki1 is required for anterior neural patterning. 20 ng of control MO or Tiki1MO plus fluorescein dextran (FLD, as a lineage tracer) were injected into one dorsal blastomere at the 8-cell stage. 50 pg of HA*Tiki1 mRNA were injected into the dorsal-animal blastomeres at the 4-cell stage in rescue experiments. Injected embryos were collected at stage 16 and subjected for whole mount in situ hybridization. Expression of forebrain markers BF1 and Otx2 (not shown) and the midbrain marker Ent was reduced in the Tiki1MO-injected half and was rescued by HA*Tiki1.
Procedures for embryo manipulation, reverse transcription PCR and in situ hybridization were performed as previously described (Tamai et al., 2000). The arrayed Xenopus tropicalis full length cDNAs (Voigt et al., 2005) were used for the screening as performed previously (Kato et al., 2002). cDNA pools (in the CS107 vector) that contain 96 independent clones were transcribed in vitro using SP6 polymerase, and the resulting mRNA pools were injected into the dorsal side of the embryo at 4-cell stage at the dose of 10 ng RNA/embryo. Injected embryos were scored at stage 30-31 for enlarged or diminished anterior development. The positive pools were divided into smaller pools and the same process was repeated till a single cDNA was identified.
The following morpholino oligonucleotides were used: Tiki1 MO: 5′-[…]-3′ (SEQ ID NO:33); standard control MO: 5′-[…]-3′ (SEQ ID NO:34) (Gene Tools, LLC). RT-PCR primers for XTiki1: Forward, 5′-[…]-3′(SEQ ID NO:35), Reverse, 5′-[…]-3′(SEQ ID NO:36); human TIKI1: Forward, 5′-[…]-3′(SEQ ID NO:37), Reverse, 5′-[…]-3′(SEQ ID NO:38); human TIKI2: Forward, 5′-[…]-3′(SEQ ID NO:39), Reverse, 5′-[…]-3′(SEQ ID NO:40).
The fact that Tiki1 is specifically expressed in, and is required for function of, the head organizer implies that Tiki1 has a role in anterior neural patterning. Tiki1MO were injected with fluorescein dextran (FLD, as a lineage tracer) into one dorsal-animal blastomere at the 8-cell stage and analyzed expression of anterior neural markers at stage 16. Tiki1MO suppressed, in the injected half of the embryo, the expression of forebrain marker BF1 and Otx2 (FIG. 3I and Table 3). […] HA*Tiki1 mRNA injection rescued the expression of BF1, Otx2, and Ent in Tiki1MO-injected embryos (FIG. 3I and Table 3).

Tiki1 [2] = target: T1, Tiki1; assay: MO block of Tiki1 protein synthesis in animal caps, Western blotting; conditions: animal caps stage 10
Protocol: (A) 500 pg mRNA for Tiki1-FLAG (targeted by MO) or HA*Tiki1 (resistant to MO) were injected with or without the Tiki1MO (5, 10, 20, 40 ng) into the animal pole at the 2-cell stage, and animal caps were dissected at stage 10 for Western blotting. MO, morpholino antisense oligonucleotide.
20 ng of Tiki1MO were injected into two dorsal blastomeres of 8-cell stage embryos. […] Co-injection of HA*Tiki1 mRNA rescued Tiki1MO phenotypes (FIGS. 3B and 3C). Supporting a role of Tiki1 in Wnt inhibition during head formation, Dkk1 mRNA injection also rescued Tiki1MO anterior deficiency phenotypes (FIG. 3E).

Tiki1 [3] = target: T1, Tiki1; assay: S01234-luciferase Wnt-responsive reporter assay in embryos with Tiki1MO knockdown; conditions: 20 ng MO in Xwnt8-producing or Xwnt8-responding cells
Protocol: (C) The endogenous Tiki1 acts in Wnt-producing cells. Tiki1MO or control MO (20 ng) was co-injected with CS2+Xwnt8 DNA (40 pg) into a single dorsal blastomere at the 8-cell stage, while 501234-Luciferase or S0-luciferase (100 pg) plus TK-Renilla (1.25 pg) reporter DNAs were injected into a neighboring dorsal blastomere.
(D) The endogenous Tiki1 acts in Wnt-responding cells. S01234-luciferase or S0-luciferease and TK-Renilla reporter DNAs were co-injected with Tiki1MO or control MO into a single dorsal blastomere, while CS2+Xwnt8 was injected into a neighboring dorsal blastomere. Luciferase readings were normalized to Renilla.
The same question was addressed complementarily via Tiki1MO knockdown in dorsal blastomeres whose progenies expresses Tiki1 endogenously. At the 8-cell stage, an Xwnt8 expression plasmid (which transcribes Xwnt8 after mid-blastula transition) plus the Tiki1MO (or control MO) were co-injected into a single blastomere (i.e., to knock down Tiki1 in Xwnt8-producing cells), and the S01234-luciferase plasmid was injected into the neighboring blastomere. Alternatively the Xwnt8 plasmid was injected into a single blastomere, and the 501234-luciferase reporter plus Tiki1MO or control MO was co-injected into the neighboring blastomere (i.e., to knock down Tiki1 in Xwnt8-responding cells).

## Tiki1 MO: morpholino antisense oligonucleotide against Tiki1, 5′-CCAAATGATTACCATCATAGCTCAG-3′ (SEQ ID NO:33) (all phosphorodiamidate morpholino (PMO))
Tiki1 [1]; gene BF1, stage 16
  Whole embryos displaying change in gene expression: BF1 Absent, Percentage (%): 63%
  Whole embryos displaying change in gene expression: BF1 NC (No Change), Percentage (%): 14%
  Whole embryos displaying change in gene expression: BF1 Reduced, Percentage (%): 23%
  Whole embryos displaying change in gene expression: BF1 increased, Percentage (%): 0%
Tiki1 [1]; gene En-2, stage 16
  Whole embryos displaying change in gene expression: En-2 Absent, Percentage (%): 40%
  Whole embryos displaying change in gene expression: En-2 NC (No Change), Percentage (%): 35%
  Whole embryos displaying change in gene expression: En-2 Reduced, Percentage (%): 25%
  Whole embryos displaying change in gene expression: En-2 increased, Percentage (%): 0%
Tiki1 [1]; gene HoxB9, stage 16
  Whole embryos displaying change in gene expression: HoxB9 Absent, Percentage (%): 0%
  Whole embryos displaying change in gene expression: HoxB9 NC (No Change), Percentage (%): 100%
  Whole embryos displaying change in gene expression: HoxB9 Reduced, Percentage (%): 0%
  Whole embryos displaying change in gene expression: HoxB9 increased, Percentage (%): 0%
Tiki1 [1]; gene Otx2, stage 16
  Whole embryos displaying change in gene expression: Otx2 Absent, Percentage (%): 35%
  Whole embryos displaying change in gene expression: Otx2 NC (No Change), Percentage (%): 35%
  Whole embryos displaying change in gene expression: Otx2 Reduced, Percentage (%): 30%
  Whole embryos displaying change in gene expression: Otx2 increased, Percentage (%): 0%
Tiki1 [2]; 5, 10, 20, 40 ng MO
  Synthesis of exogenously expressed Tiki1-FLAG: specifically blocked the synthesis
Tiki1 [2]
  Synthesis of HA*Tiki1 (mRNA lacking the MO complementary sequence): unable to block the synthesis
Tiki1 [3]
  XWnt8 response of S01234-luciferase reporter: enhanced
